Laboratory results taken from US20250313572A1, “MACROCYCLIC MCL-1 INHIBITORS AND METHODS OF USE” (AbbVie Inc., priority 2017, published 2025).
Like-named read-outs stand apart in the source and are kept apart here.

Experiments:
[1] = tested on: AMO-1 human multiple myeloma tumor cell line; assay: AMO-1 cell viability assay (CellTiter-Glo, 24 hours); type: cell-based; conditions: Homo sapiens, AMO1, 24 h, read-out: AMO-1 Viability IC50 (μM, 10% FBS), 10% FBS, 24 hours of compound treatment
[2] = tested on: NCI-H929 human multiple myeloma tumor cell line; assay: NCI-H929 cell viability assay (CellTiter-Glo, 24 hours); type: cell-based; conditions: Homo sapiens, NCI-H929, 24 h, read-out: H929 Viability IC50 (μM, 10% FBS), 10% FBS, 24 hours of compound treatment
GST-MCL-1 = GST-MCL-1 (Homo sapiens, UniProt Q07820); assay: TR-FRET MCL-1 binding assay (competition with probe F-Bak)
Sequence of GST-MCL-1 (Q07820 whole entry): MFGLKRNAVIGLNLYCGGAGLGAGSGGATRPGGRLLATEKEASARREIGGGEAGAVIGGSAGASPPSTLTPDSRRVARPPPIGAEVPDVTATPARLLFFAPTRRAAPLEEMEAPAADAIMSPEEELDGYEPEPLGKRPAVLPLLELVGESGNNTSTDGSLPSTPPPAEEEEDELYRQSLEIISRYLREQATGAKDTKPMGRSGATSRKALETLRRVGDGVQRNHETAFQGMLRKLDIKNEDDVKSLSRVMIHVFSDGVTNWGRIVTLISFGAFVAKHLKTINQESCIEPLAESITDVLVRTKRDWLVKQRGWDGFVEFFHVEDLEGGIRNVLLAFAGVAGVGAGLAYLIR
Summary of the method: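 Displacement of F-Bak from GST-MCL-1 is detected by time-resolved FRET with a Tb-labelled anti-GST antibody, with excitation 340/35 nm and emission 520/525 and 495/510 nm, after 2 hours at room temperature. Compounds were titrated in 11 three-fold steps starting at 25 μM final, in buffer alone or in 10% HS.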

[3] = MCL-1 Binding Ki (nM, 10% HS), in the presence of 10% HS (human serum)
[4] = without HS, read-out: MCL-1 Binding Ki

Row | Structure (SMILES) | IC50 [1] [µM] | IC50 [2] [µM] | Ki (GST-MCL-1; [3]) [nM] | Ki (GST-MCL-1; [4]) [nM]
1 | CO[C@H]1O[C@H](COc2ccc(-c3nccc(COc4ccc5cc4C[C@H](C(=O)O)Oc4ncnc6sc(-c7ccc(F)cc7)c(c46)-c4ccc(c(Cl)c4C)O[C@H](CN4CCN(C)CC4)CO5)n3)cc2)[C@@H](OC)[C@H](OC)[C@@H]1OC [Example 14, methyl 6-O-{4-[4-({[(7R,16R,21S)-7-carboxy-19-chloro-1-(4-fluorophenyl)-20-methyl-16-[(4-methylpiperazin-1-yl)methyl]-7,8,15,16-tetrahydro-18,21-etheno-13,9-(metheno)-6,14,17-trioxa-2-thia-3,5-diazacyclononadeca[1,2,3-cd]inden-10-yl]oxy}methyl)pyrimidin-2-yl]phenyl}-2,3,4-tri-O-methyl-a-D-mannopyranoside] | 0.00154 | 0.00258 | 0.547 | 0.124
2 | Cc1c(Cl)c2c(Cl)c(C)c1-c1c(-c3ccc(F)cc3)sc3ncnc(c13)O[C@@H](C(=O)O)Cc1cc(ccc1OCc1ccnc(-c3ccc(OCCN4CCP(C)(=O)CC4)cc3)n1)OC[C@@H](CN1CCN(C)CC1)O2 [Example 71, (7R,16R)-19,23-dichloro-1-(4-fluorophenyl)-20,22-dimethyl-10-[(2-{4-[2-(4-methyl-4-oxo-1, 4λ^5-azaphosphinan-1-yl)ethoxy]phenyl}pyrimidin-4-yl)methoxy]-16-[(4-methylpiperazin-1-yl)methyl]-7,8,15,16-tetrahydro-18,21-etheno-13,9-(metheno)-6,14,17-trioxa-2-thia-3,5-diazacyclononadeca[1,2,3-cd]indene-7-carboxylic Acid] | 0.00468 | 0.00851 | 0.106 | 0.039
3 | Cc1c2ccc(c1Cl)O[C@H](CN1CCN(C)CC1)COc1ccc(OCc3ccnc(N4CCC5(CC4)CC(F)(F)CO5)n3)c(c1)C[C@H](C(=O)O)Oc1ncnc3sc(-c4ccc(F)cc4)c-2c13 [Example 78, (7R,16R)-19-chloro-10-{[2-(3,3-difluoro-1-oxa-8-azaspiro[4.5]decan-8-yl)pyrimidin-4-yl]methoxy}-1-(4-fluorophenyl)-20-methyl-16-[(4-methylpiperazin-1-yl)methyl]-7,8,15,16-tetrahydro-18,21-etheno-13,9-(metheno)-6,14,17-trioxa-2-thia-3,5-diazacyclononadeca[1,2,3-cd]indene-7-carboxylic Acid] | 0.000935 | 0.00552 | 16 | 2.28
4 | Cc1c(Cl)c2c(Cl)c(C)c1-c1c(-c3ccc(F)cc3)sc3ncnc(c13)O[C@@H](C(=O)O)Cc1cc(ccc1OCc1ccnc(N3CCO[C@H](COCCOCC4COCCO4)C3)n1)OC[C@@H](CN1CCN(C)CC1)O2 (stereo partly drawn) [Example 103, (7R,16R)-19,23-dichloro-10-({2-[(2S)-2-({2-[(1,4-dioxan-2-yl)methoxy]ethoxy}methyl)morpholin-4-yl]pyrimidin-4-yl}methoxy)-1-(4-fluorophenyl)-20,22-dimethyl-16-[(4-methylpiperazin-1-yl)methyl]-7,8,15,16-tetrahydro-18,21-etheno-13,9-(metheno)-6,14,17-trioxa-2-thia-3,5-diazacyclononadeca[1,2,3-cd]indene-7-carboxylic Acid] | 0.000281 | 0.000578 | 0.172 | 0.033
5 | COC[C@@H](COc1ccc(-c2nccc(COc3ccc4cc3C[C@H](C(=O)O)Oc3ncnc5sc(-c6ccc(F)cc6)c(c35)-c3c(C)c(Cl)c(c(Cl)c3C)O[C@H](CN3CCN(C)CC3)CO4)n2)cc1)OC [Example 136, (7R,16R)-19,23-dichloro-10-[(2-{4-[(25)-2,3-dimethoxypropoxy]phenyl}pyrimidin-4-yl)methoxy]-1-(4-fluorophenyl)-20,22-dimethyl-16-[(4-methylpiperazin-1-yl)methyl]-7,8,15,16-tetrahydro-18,21-etheno-9,13-(metheno)-6,14,17-trioxa-2-thia-3,5-diazacyclononadeca[1,2,3-cd]indene-7-carboxylic acid] | 0.000403 | 0.000392 | 0.758 | 0.027
6 | COCCOCCOCCO[C@H]1CC[C@H](c2nccc(COc3ccc4cc3C[C@H](C(=O)O)Oc3ncnc5sc(C6CCC6)c(c35)-c3c(C)c(Cl)c(c(Cl)c3C)O[C@H](CN3CCN(C)CC3)CO4)n2)CC1 [Example 131, (7R,16R)-19,23-dichloro-1-cyclobutyl-10-({2-[(1r,4r)-4-{2-[2-(2-methoxyethoxy)ethoxy]ethoxy}cyclohexyl]pyrimidin-4-yl}methoxy)-20,22-dimethyl-16-[(4-methylpiperazin-1-yl)methyl]-7,8,15,16-tetrahydro-18,21-etheno-13,9-(metheno)-6,14,17-trioxa-2-thia-3,5-diazacyclononadeca[1,2,3-cd]indene-7-carboxylic Acid] | 0.000367 | 0.000585 | 1.14 | 0.024
7 | Cc1c2ccc(c1Cl)O[C@H](CN1CCN(C)CC1)COc1ccc(OCc3ccnc([C@H]4CCCN4C(=O)CCP(C)(C)=O)n3)c(c1)C[C@H](C(=O)O)Oc1ncnc3sc(-c4ccc(F)cc4)c-2c13 [Example 55, (7R,16R)-19-chloro-10-[(2-{(2R)-1-[3-(dimethylphosphoryl)propanoyl]pyrrolidin-2-yl}pyrimidin-4-yl)methoxy]-1-(4-fluorophenyl)-20-methyl-16-[(4-methylpiperazin-1-yl)methyl]-7,8,15,16-tetrahydro-18,21-etheno-13,9-(metheno)-6,14,17-trioxa-2-thia-3,5-diazacyclononadeca[1,2,3-cd]indene-7-carboxylic Acid] | > 1 | > 1 | 92.6 | 38.2
8 | Cc1c(Cl)c2c(Cl)c(C)c1-c1c(-c3ccc(F)cc3)sc3ncnc(c13)O[C@@H](C(=O)O)Cc1cc(ccc1OCc1ccnc(N3CC4(C3)CC(F)(F)C4)n1)OC[C@@H](CN1CCN(C)CC1)O2 [Example 48, (7R,16R)-19,23-dichloro-10-{[2-(6,6-difluoro-2-azaspiro[3.3]heptan-2-yl)pyrimidin-4-yl]methoxy}-1-(4-fluorophenyl)-20,22-dimethyl-16-[(4-methylpiperazin-1-yl)methyl]-7,8,15,16-tetrahydro-18,21-etheno-9,13-(metheno)-6,14,17-trioxa-2-thia-3,5-diazacyclononadeca[1,2,3-cd]indene-7-carboxylic Acid] | 0.00275 | 0.00798 | 5.32 | 0.644
9 | COCCOCCOCCOc1ccc(-c2nccc(COc3ccc4cc3C[C@H](C(=O)O)Oc3ncnc5sc(-c6ccc(F)cc6)c(c35)-c3c(C)c(Cl)c(c(Cl)c3C)O[C@H](CN3CCN(C)CC3)CO4)n2)cn1 [Example 46, (7R,16R)-19,23-dichloro-1-(4-fluorophenyl)-10-{[2-(6-{2-[2-(2-methoxyethoxy)ethoxy]ethoxy}pyridin-3-yl)pyrimidin-4-yl]methoxy}-20,22-dimethyl-16-[(4-methylpiperazin-1-yl)methyl]-7,8,15,16-tetrahydro-18,21-etheno-13,9-(metheno)-6,14,17-trioxa-2-thia-3,5-diazacyclononadeca[1,2,3-cd]indene-7-carboxylic Acid] | 0.00027 | 0.000388 | 1.08 | 1.02
